Reference: publication PMC9616048, “Thermal proteome profiling reveals Haemonchus orphan protein HCO_011565 as a target of the nematocidal small molecule UMW-868” (Frontiers in Pharmacology, 2022)

Assays:
[1] = system: H. contortus xL3 to L4 development; assay: High throughput screen, larval development and phenotype at 168 h; assay type: cell-based, Haemonchus contortus
Protocol: Following the measurement of xL3 motility, plates were incubated again for 78 h (i.e., a total of 168 h) under the same conditions. Thereafter, 40 µl of 1% (v/v) iodine were added to individual wells, and worms examined using a light microscope (M80, Leica) at 60-times magnification to assess larval development, based on the presence/absence of a well-developed pharynx ([Sommerville, 1966]), and/or phenotypic alterations with respect to untreated xL3s.

eggs of H. contortus = assay: Egg hatch assay; assay type: cell-based; settings: Haemonchus contortus, 48 h; read-out: Egg hatch inhibition (IC50 in µM)
Protocol: Compounds were also assessed for their effect on the hatching of eggs of H. contortus in vitro. To do this, eggs were isolated from the faeces from sheep with patent (30 day-) H. contortus infection by sucrose flotation ([Mes et al., 2007]). Eggs were suspended in H2O at a concentration of one egg per µl. The eggs were dispensed into wells (in triplicate; 100 eggs per well) and incubated with two-fold serial dilutions (9 points from 50 μM to 0.2 µM in H2O) of individual test or control compounds for 48 h at 27°C and >90% relative humidity; wells with no compound were also included. The numbers (percentages) of eggs from which first-stage larvae (L1s) hatched were counted using a light microscope (M80, Leica) at a 40-times magnification. With reference to positive-control compounds (i.e., monepantel and moxidectin), IC50 values of compounds were calculated.

H. contortus xL3s = assay: Cell lethality in xL3s (Sytox Green staining); assay type: cell-based, Haemonchus contortus
Protocol: Fluorescence staining was employed to assess the ability of UMW-868 to reduce the viability of H. contortus. The xL3s were dispensed in 96-well plates at a density of 300 xL3 per well, and incubated with compounds UMW-868 or A-3155, non-active analogs of UMW-868, at 50 μM at 38°C, 10% (v/v) CO2 and >90% relative humidity. After 90 h of incubation, H. contortus xL3s were stained with Sytox Green nucleic acid stain (Thermo Fisher Scientific) at the final concentration of 1 µM in LB* in the same 96-well plates and incubated for 1 h at 38°C and 10% (v/v) CO2 with >90% relative humidity. Following the incubation, the viability of larvae was evaluated by measuring the relative fluorescent units (RFU) of xL3s using an Omega FLUOstar microplate reader (BMG Labtech), with excitation and emission wavelengths set at 485 nm and 520 nm, respectively. The 96-well plates containing the stained larvae were returned to the incubator for further 78 h; after a total of 168 h of compound exposure, the stained larvae were examined under an inverted fluorescence microscope (DM IL, Leica) equipped with a green fluorescent protein filter (470/500/525 […]; Leica), and imaged using Leica Application Suite software (Leica).

[2] = Cellular toxicity in HepG2 cells (crystal violet); assay type: cell-based, human; settings: human, HepG2 human hepatoma cells; HepG2, 48 h; read-out: Cytotoxicity (48 h) CC50
Protocol: (§1) The toxicities of compounds on cell and mitochondria were assessed to estimate their half-maximal cytotoxic concentrations (CC50) and half-maximal mitotoxic concentrations (MC50), respectively. HepG2 human hepatoma cells were seeded into wells of a 96-well plate at a density of 5.5 × 10^4 cells per well in 80 µl of Dulbecco’s modified eagle medium (DMEM; with GlutaMax™ cat. no. 10566016 or 4 mM L-glutamine cat. no. 11966025; Thermo Fisher Scientific), supplemented with 25 mM D-glucose (cytotoxicity) or D-galactose (mitotoxicity), 10% (v/v) inactivated foetal bovine serum (iFBS), 100 IU/ml of penicillin, 100 μg/ml of streptomycin and 0.25 μg/ml of amphotericin B (designated DMEM*). Cells were allowed to adhere for 16 h at 37°C and 5% (v/v) CO2 at > 90% relative humidity, then, incubated for 48 h with individual, serially-diluted compounds (two-fold serial dilution in DMEM*; […]) in a final volume of 100 µl. For the assessment of toxicity on mitochondria, cells were starved of serum (DMEM* without iFBS) for 4 h prior to the 48 h-incubation with compounds ([Swiss and Will, 2011]; [Kamalian et al., 2015]). Two positive control compounds, doxorubicin (cytotoxic control) and M-666 (mitotoxic control) were each added to three individual wells in each 96-well plate at a single concentration of 10 µM. DMEM* + 0.25% (v/v) DMSO was added to 12 wells in each plate as negative controls. Monepantel and moxidectin were also serially diluted — prepared in the same manner as test compounds — and used as (“non-toxic”) reference compounds. After 48 h of incubation, cell viability was determined by the crystal violet staining method ([Śliwka et al., 2016]). The absorbance (595 nm) of treated cells was normalised with reference to the negative control (100% viability). To determine the CC50 and MC50 values, compound concentrations were log10-transformed, baseline-corrected using a respective positive control (doxorubicin or M-666) and fitted using a variable slope four-parameter equation with a least squares (ordinary) fit model using GraphPad Prism software (v.9.1.2). Compounds and controls were tested in triplicate.

[3] = system: HepG2 human hepatoma cells; assay: Cellular toxicity in HepG2 cells (crystal violet); assay type: cell-based; settings: HepG2 cells, concentrations of up to 100 µM
Protocol: as §1

[4] = system: Caenorhabditis elegans young adults; assay: In vitro activity on C. elegans; assay type: cell-based
[5] = system: A. ceylanicum in hamsters; assay: In vivo activity against A. ceylanicum in hamsters; design: species or system Ancylostoma ceylanicum
Protocol: Candidate compound(s) were tested for their effect on other nematode species (He. polygyrus and A. ceylanicum) in infected rodents.
For He. polygyrus, four NMRI mice (3 weeks old; female) were infected orally with 88 He. polygyrus L3s, and immunosuppressed with 0.25 mg/ml dexamethasone (Sigma-Aldrich), in the drinking water, until 2 days prior to treatment ([Mes et al., 2007]). For A. ceylanicum, four Syrian golden hamsters (3 weeks old; male) were infected orally with 300 L3s without immunosuppression ([Tritten et al., 2012]). Fourteen days or 23 days after the infection, mice and hamsters, respectively, were treated orally with UMW-868 at dosages of 100 mg/kg bw (mice and hamsters). Four each of untreated mice and hamsters served as placebo controls. Six to 7 days post-treatment with the compound, all animals were euthanised by CO2 (hamsters being initially narcotised using isoflurane), and the intestine was dissected. The live adult worms were collected and counted to calculate the worm burden reductions and worm expulsion rates. The worm burden reduction was calculated using the mean number of live worms for the treated group and establishing the differences, in a percentage, with reference to the untreated control group.

[6] = hamster, A. ceylanicum, 100 mg/kg single oral dose

CCCc1ccc(-c2nc(-c3cccs3)no2)cc1 [UMW-868, 5-(4-propylphenyl)-3-(2-thienyl)-1,2,4-oxadiazole]
Abnormal phenotype detected at 168 h ([1]; 20 µM): Cur, Evi
inhibition at 20 µM ([1]; Haemonchus contortus, development to L4): 80 to 99%
IC50 (eggs of H. contortus): 6.2 µM
percentage of treated xL3s killed (H. contortus xL3s; 50 μM, 90 h): 100%
concentration at which cell death was detected in xL3s (H. contortus xL3s; 90 h of exposure): > 5 µM
dead cells detected microscopically in xL3s (Sytox Green) (H. contortus xL3s; 168 h of exposure): dead cells could be seen throughout the larvae
IC50 (H. contortus xL3s; Haemonchus contortus, 90 h, read-out: IC50 (lethality, inducing cell death in xL3s)): 34.8 µM
CC50 at 48 h [2]: > 50 µM
cytotoxicity (in words) [3]: did not display any appreciable cytotoxicity
motility reduction of C. elegans ([4]; 10 µM, at 40 h): 53.5%
IC50 ([4]; Caenorhabditis elegans, read-out: IC50 (C. elegans motility)): 9.9 µM
Mean no. of worms (SD) [5, 6]: 4.8 (1.0)
Reduction in infection intensity (%) [5, 6]: 48%
acute toxicity and pathological changes in treated animals ([5]; hamsters, single oral dose, post-mortem examination): neither evidence of acute toxicity
